# Target: T1, Human Recombinant Matriptase 2 (Homo sapiens, UniProt Q8IU80)
# T1 construct: purchased Enzo Life Sciences (an in-house preparation was also used) ALX-201-752-1
# T1 sequence (Q8IU80 1-811): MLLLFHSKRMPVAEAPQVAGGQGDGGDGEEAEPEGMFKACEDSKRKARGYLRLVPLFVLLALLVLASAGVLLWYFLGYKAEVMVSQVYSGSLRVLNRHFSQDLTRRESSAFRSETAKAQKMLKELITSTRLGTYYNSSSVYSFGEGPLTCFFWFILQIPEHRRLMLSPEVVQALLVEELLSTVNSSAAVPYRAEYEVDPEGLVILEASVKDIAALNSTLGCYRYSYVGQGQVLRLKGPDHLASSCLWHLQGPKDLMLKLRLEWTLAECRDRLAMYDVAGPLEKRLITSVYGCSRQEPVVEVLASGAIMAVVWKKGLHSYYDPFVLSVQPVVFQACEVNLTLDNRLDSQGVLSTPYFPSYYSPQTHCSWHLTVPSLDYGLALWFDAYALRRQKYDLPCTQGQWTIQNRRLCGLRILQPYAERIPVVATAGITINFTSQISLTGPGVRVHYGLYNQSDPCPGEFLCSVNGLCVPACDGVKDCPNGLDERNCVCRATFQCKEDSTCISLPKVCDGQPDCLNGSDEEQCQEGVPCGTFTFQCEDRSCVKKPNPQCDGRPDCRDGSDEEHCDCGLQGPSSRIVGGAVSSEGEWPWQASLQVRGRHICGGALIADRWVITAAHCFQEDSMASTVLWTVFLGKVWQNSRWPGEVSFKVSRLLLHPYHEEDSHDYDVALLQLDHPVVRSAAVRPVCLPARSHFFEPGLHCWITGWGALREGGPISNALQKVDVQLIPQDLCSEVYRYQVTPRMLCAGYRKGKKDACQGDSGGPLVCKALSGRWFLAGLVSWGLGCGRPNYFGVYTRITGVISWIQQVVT
# Experiment: Matriptase 2 fluorescence based inhibition assay, Method B (50 mM TRIS pH 7.5, 150 mM NaCl, 0.01% gelatin)
# Type: biochemical
# Settings: 1 uM compound; Assay Used = B (Method B)
# Description: Test compounds were evaluated for their potential to inhibit Human Recombinant Matriptase 2 (in-house and commercial protein from Enzo Life Sciences—cat log -ALX-201-752-1) using fluorescence based assay. The concentration of Recombinant Matriptase 2 and the substrate used in the assay was: 7 nM (commercial) and 15 nM (Inhouse Matriptase 2) and 100 μM (Boc-Gln-Ala-Arg-7-amido-4-methyl coumarin hydrobromide—Cat log: B4153-Sigma and I-1550 from Bachem) respectively. The assay buffer used was 50 mM TRIS pH 7.5, 150 mM NaCl, 0.01% gelatin (G1393 Sigma). The assay was performed using 384 well black flat bottom plate from grenier (Cat log: 781076) at 25° C. The enzyme and compound preincubated for 30 mins, plate was read 60 mins after substrate addition at wavelength Ex: 360/Em:480 nm. The final assay volume of was 20 μl. Stock solution of compounds were initially prepared in DMSO and appropriate dilutions were made for screening and IC50 determination (final DMSO conc in the assay was 1%). All the measurements were carried out using the Spectramax M5, Molecular devices. The compounds were screened at 1 and 10 μM concentration and IC50 was determined for the interested compounds.
# To determine IC50 values, dose response curves were generated by plotting percentage inhibition as a function of inhibitor concentration and the data was fitted to sigmoidal non-linear regression equation (variable slope) using Graph Pad prism software V7.
row,SMILES,Mar-2 % inhibition at 1 uM
1,N=C(N)c1ccc2cc(C(=O)N[C@H]3CC[C@H](N)CC3)n(Cc3ccc(C(=O)O)c4ccccc34)c2c1 [Compound I-673],B (B represents 25%≤I≤50%)

# Same assay, conditions: 1 uM compound; Assay Used = B (Method B); read-out: Mar-2 % inhibition at 1 uM
row,SMILES,inhibition at 1 µM
1,"N=C(N)c1ccc2cc(C(=O)N[C@H]3CC[C@H](N)CC3)n(Cc3cc(C(N)=O)cc4ccccc34)c2c1 [Compound I-796, N-((1r, 4r)-4-aminocyclohexyl)-6-carbamimidoyl-1-((3-carbamoylnaphthalen-1-yl)methyl)-1H-indole-2-carboxamide]",50 to 75%
2,N=C(N)c1ccc2cc(C(=O)N[C@H]3CC[C@H](N)CC3)n(Cc3cc(Oc4ccsc4)cc4ccccc34)c2c1 [Compound I-631],75 to 100%
3,N=C(N)c1ccc2cc(C(=O)N[C@H]3CC[C@H](N)CC3)n(Cc3cc(C(=O)OCc4ccccc4)cc4ccccc34)c2c1 [Compound I-774],75 to 100%
4,N=C(N)c1ccc2cc(C(=O)O)n(Cc3cccc4ccc(Oc5ccccc5)cc34)c2c1 [Compound I-680],25 to 50%
5,"CO/N=C(\N)c1ccc2cc(C(=O)OC)n(Cc3cccc4ccccc34)c2c1 [Compound I-718, methyl (E)-6-(N′-methoxycarbamimidoyl)-1-(naphthalen-1-ylmethyl)-1H-indole-2-carboxylate]",0 to 25%
6,N=C(N)c1ccc2cc(C(=O)O)n(Cc3cc(S(=O)(=O)c4ccccc4)cc4ccccc34)c2c1 [Compound I-678],50 to 75%
7,N=C(N)c1ccc2cc(C(=O)O)n(Cc3cc(Oc4ncccn4)cc4ccccc34)c2c1 [Compound I-693],75 to 100%
8,"CO/N=C(/N)c1ccc2cc(C(=O)O)n(Cc3cccc4ccccc34)c2c1 [Compound I-699, (E)-6-(N′-methoxycarbamimidoyl)-1-(naphthalen-1-ylmethyl)-1H-indole-2-carboxylic Acid]",0 to 25%
9,CC(C)OC(=O)NC(=N)c1ccc2cc(C(=O)O)n(Cc3cccc4ccccc34)c2c1 [Compound I-786],0 to 25%
10,N=C(N)c1ccc2cc(C(=O)O)n(Cc3cccc4c(COCc5ccccc5)cccc34)c2c1 [Compound I-672],75 to 100%
11,N=C(N)c1ccc2cc(C(=O)NCC3(CN)CCCCC3)n(Cc3cccc4ccccc34)c2c1 [Compound I-604],75 to 100%
12,CN(C)C(=O)c1cc2ccc(C(=N)N)cc2n1Cc1cccc2ccccc12 [Compound I-624],25 to 50%
13,N=C(N)c1ccc2cc(C(=O)N[C@H]3CC[C@H](N)CC3)n(Cc3cc(Oc4ccc(-c5ccccc5)cc4)cc4ccccc34)c2c1 [Compound I-715],0 to 25%
14,CC(C)(C)OC(=O)NC(=N)c1ccc2cc(C(=O)N[C@H]3CCCc4ccccc43)n(Cc3cccc4ccccc34)c2c1 [Compound I-767],0 to 25%
15,N=C(N)c1ccc2cc(C(=O)N[C@H]3CC[C@H](N)CC3)n(Cc3cc(Oc4ccccc4)cc4ccccc34)c2c1 [Compound I-777],75 to 100%
16,N=C(N)c1ccc2cc(C(=O)Nc3ccncc3)n(Cc3cccc4ccccc34)c2c1 [Compound I-763],50 to 75%
17,N=C(N)c1ccc2cc(C(=O)O)n(Cc3cc(N4CCOCC4=O)cc4ccccc34)c2c1 [Compound I-692],0 to 25%
18,N=C(N)c1ccc2cc(C(=O)N[C@H]3CC[C@H](N)CC3)n(Cc3cc(O)cc4ccccc34)c2c1 [Compound I-694],75 to 100%

# Same assay, conditions: 1 uM compound; Assay Used = B; read-out: Mar-2 % inhibition at 1 uM
row,SMILES,inhibition at 1 µM
1,N=C(N)c1ccc2cc(C(=O)NC3CCC(N4CCCC4)CC3)n(Cc3cccc4ccccc34)c2c1 (stereo not shown) [Compound I-462],75 to 100%
2,CN1CC[C@@H](NC(=O)c2cc3ccc(C(=N)N)cc3n2Cc2cccc3ccccc23)C1 [Compound I-450],75 to 100%
3,N=C(N)c1ccc2cc(C(=O)NCCCCN)n(Cc3cccc4ccccc34)c2c1 [Compound I-452],75 to 100%
4,N=C(N)c1ccc2cc(C(=O)N[C@H]3CC[C@H](N)CC3)n(Cc3c(Cl)cccc3Cl)c2c1 [Compound I-503],0 to 25%
5,"N=C(N)c1ccc2c(CO)c(C(=O)N[C@H]3CC[C@H](N)CC3)n(Cc3cccc4ccccc34)c2c1 [Compound I-516, N-((1r,4r)-4-aminocyclohexyl)-6-carbamimidoyl-3-(hydroxymethyl)-1-(naphthalen-1-ylmethyl)-1H-indole-2-carboxamide]",0 to 25%
6,COC(=O)NCCOC(=O)c1cc2ccc(C(=N)N)cc2n1Cc1cc(S(=O)(=O)c2ccccc2)cc2ccccc12 [Compound I-556],25 to 50%
7,CC(C)COC(=O)NC(=N)c1ccc2cc(C(=O)OCc3ccccc3)n(Cc3cc(Oc4ncccn4)cc4ccccc34)c2c1 [Compound I-581],25 to 50%
8,CN[C@H]1CC[C@H](NC(=O)c2cc3ccc(C(=N)N)cc3n2Cc2cccc3ccccc23)CC1 [Compound I-472],75 to 100%
9,COC(=O)NCCOC(=O)c1cc2ccc(C(=N)N)cc2n1Cc1cc(Oc2ccccc2)cc2ccccc12 [Compound I-555],25 to 50%
10,"N=C(N)c1ccc2cc(NC(=O)[C@H]3CC[C@H](N)CC3)n(Cc3cccc4ccccc34)c2c1 [Compound I-529, (1r,4r)-4-amino-N-(6-carbamimidoyl-1-(naphthalen-1-ylmethyl)-1H-indol-2-yl) cyclohexane-1-carboxamide]",50 to 75%
11,N=C(N)c1ccc2cc(C(=O)NC3CCNCC3F)n(Cc3cccc4ccccc34)c2c1 (stereo not shown) [Compound I-593],75 to 100%
12,N=C(N)c1ccc2cc(C(=O)N[C@H]3CC[C@H](N)CC3)n(Cc3ccc(C(N)=O)c4ccccc34)c2c1 [Compound I-509],50 to 75%
13,N=C(N)c1ccc2cc(C(=O)NC3CCCNC3)n(Cc3cccc4ccccc34)c2c1 (stereo not shown) [Compound I-445],75 to 100%
14,"N=C(N)c1ccc2ccn(Cc3cccc4ccccc34)c2c1 [Compound I-521, 1-(naphthalen-1-ylmethyl)-1H-indole-6-carboximidamide]",50 to 75%
15,N=C(N)c1ccc2cc(C(=O)Nc3cccc(N4CCCC4)n3)n(Cc3cccc4ccccc34)c2c1 [Compound I-461],25 to 50%
16,"N=C(N)c1ccc2cc(C(=O)Nc3ncccn3)n(Cc3cccc4ccccc34)c2c1 [Compound I-573, 6-carbamimidoyl-1-(naphthalen-1-ylmethyl)-N-(pyrimidin-2-yl)-1H-indole-2-carboxamide]",50 to 75%
17,CC(C)(C)OC(=O)NC(=N)c1ccc2cc(C(=O)N[C@H]3CC[C@H](O)CC3)n(Cc3cccc4ccccc34)c2c1 [Compound I-422],25 to 50%

# Same assay, conditions: compound at 1 uM; Assay Used: B; read-out: Mar-2 % inhibition at 1 uM
row,SMILES,inhibition at 1 µM
1,N=C(N)c1ccc2cc(C(=O)N[C@H]3CC[C@H](N)CC3)n(Cc3cc(C(=O)O)cc4ccccc34)c2c1 [Compound I-806],50 to 75%
2,N=C(N)c1ccc2cc(C(=O)OC3CCCCC3)n(Cc3cccc4ccccc34)c2c1 [Compound I-811],25 to 50%
3,"CNCCCOc1ccc2c(Cn3c(C(=O)O)cc4ccc(C(=N)N)cc43)cccc2c1 [Compound I-801, 6-carbamimidoyl-1-((6-(3-(methylamino)propoxy)naphthalen-1-yl)methyl)-1H-indole-2-carboxylic Acid]",50 to 75%
4,N=C(N)c1ccc2cc(C(=O)N[C@H]3CC[C@H](N)CC3)n(Cc3cc(Br)cc4ccccc34)c2c1 [Compound I-819],75 to 100%
5,N=C(N)c1ccc2cc(C(=O)N[C@H]3CC[C@H](N)CC3)n(Cc3cccc4ccsc34)c2c1 [Compound I-818],50 to 75%

# Same assay, conditions: read-out: Mar-2 % inhibition at 1 uM
row,SMILES,inhibition at 1 µM
1,CCOC(=O)c1cc2ccc(C(=N)NC(=O)Oc3ccccc3)cc2n1Cc1cc(Oc2ccsc2)cc2ccccc12 [Compound I-579],0 to 25%
2,CN1CCC(NC(=O)c2cc3ccc(C(=N)NC(=O)Oc4ccc(F)cc4)cc3n2Cc2cc(Oc3ncccn3)cc3ccccc23)CC1 [Compound I-545],25 to 50%

# Reference: patent US12428415B2, “Matriptase 2 inhibitors and uses thereof” (Disc Medicine, Inc., priority 2018, dated 2025)
